Reference: patent publication US9745339B2 (GRAFFINITY PHARMACEUTICALS GMBH, priority 2012, dated 2017)
pKd: −log10 of the molar value.

Experiments:
Bevacizumab [1] = test: Microtiter plate chromatography of resins: binding and elution of Bevacizumab; details: fraction of bound Bevacizumab divided by fraction of bound HCP; truncated for values beyond 10
Method: (§1) Resins were assessed in packed mode by microtiter plate chromatography. For each column, approximately 30 μl of resin were transferred to a 384-well filter plate and sealed with appropriate top fits. Columns with rProtein A SEPHAROSE 4 FF and MABSORBENT A2P HF were included as controls.
(§2) Either 3.3 cv of whole IgGs dissolved at 0.5 mg ml^−1 in PBS or undiluted host cell proteins (HCP) were injected onto columns.
(§3) Unbound protein was washed from columns with 5 cv of PBS prior to elution with 5 cv of glycine buffer at pH 2.5. […] During injection of samples, speed was reduced to 10 g and centrifugation time increased to 5-10 min. Effluent fractions were collected in 384-well plates and concentrations of protein were analyzed by Bradford assay. Protein masses mi, mft and me (see below) were calculated as the product of fraction volume and measured protein concentration.
(§4) The fraction of bound protein was calculated as the difference between the total mass of protein injected mi and the mass of protein detected in the flowthrough mft, divided by the total mass of protein injected.
(§5) The yield of protein was calculated as the mass of protein eluted me, divided by the mass of protein injected mi.
(§6) The selectivity of resins was calculated as the fraction of bound Bevacizumab antibody BAb, divided by the fraction of bound host cell proteins BHCP.
(§7) The fraction of bound protein and the yield of protein were calculated for each resin based on data for whole IgG-antibodies. In the case of host cell proteins, only the fraction of bound protein is given. Selectivity of resins was calculated from data for Bevacizumab whole IgG and host cell proteins. Due to limited experimental precision, selectivity was truncated for values beyond 10.

Bevacizumab [2] = target: T1, Bevacizumab (Homo sapiens, UniProt P01857); test: as above
T1 construct: 0.5 mg/ml IgG in PBS pH 7.3; ligand immobilized on SEPHAR; Bevacizumab Yield; other: mass eluted (glycine pH 2.5) / mass injected; kd (dissociation constant, Langmuir isotherm); other: Bevacizumab 0.05-5 mg/ml in PBS pH 7.3, 25° C., at least 3 h; qm (maximum capacity); other: mg Bevacizumab per ml of resin; Langmuir isotherm; t0; fused on or other part: Humanized anti-VEGF-A VH domain joined N-terminally to the IGHG1 constant region (engineered, no UniProt entry)
Method: as §1, §2, §3, §4, §5, §6, §7

host cell proteins (HCP) = test: Microtiter plate chromatography of resins: binding of host cell proteins; parameters: species or system CHO cell culture
Method: Flowthrough from protein A chromatography (referred to as host cell proteins) was derived from the supernatant of antibody-producing CHO cell culture in serum-free medium. Coomassie brilliant blue dye reagent for Bradford assay was purchased from Thermo Scientific (Bonn/Germany).
as §1, §2, §3, §4, §7

[3] = system: poly-IgG from human serum (h-poly-IgG); test: Microtiter plate chromatography of resins: binding and elution of human poly-IgG
Method: as §1, §2, §3, §4, §5, §7

Cetuximab = test: Microtiter plate chromatography of resins: binding and elution of Cetuximab
Method: as §1, §2, §3, §4, §5, §7

Tocilizumab = test: Microtiter plate chromatography of resins: binding and elution of Tocilizumab
Method: as §1, §2, §3, §4, §5, §7

Palivizumab = test: Microtiter plate chromatography of resins: binding and elution of Palivizumab
Method: as §1, §2, §3, §4, §5, §7

Bevacizumab [4] = target: T1, Bevacizumab; test: Langmuir isotherms by batch adsorption; type: binding; details: read-out: kd (dissociation constant, Langmuir isotherm); Bevacizumab 0.05-5 mg/ml in PBS pH 7.3, 25° C., at least 3 h
Method: Experiments were performed with Bevacizumab as antibody. Parameters of Langmuir isotherms for purified antibody were determined by batch adsorption experiments in 96-well microtiter plates. In each well, 10 μl of sorbent slurry (50% v/v) were mixed with 100 μl of protein solution. Initial concentrations varied from 0.05-5 mg/ml in phosphate-buffered saline (0.15 M NaCl, 20 mM phosphate buffer, pH 7.3; PBS). Reactions were agitated vigorously at 25° C. for at least 3 h. Afterwards, antibody concentration in the supernatants were measured by Bradford assay. Data was evaluated by direct fitting of the values with the Langmuir isotherm equation (1).
Parameters of Langmuir isotherms, i.e. dissociation constants Kd and maximum capacities qm, were determined from the measured concentrations in the supernatants. Parameters were estimated by numerical fitting of the model equation derived by Chase (1)

[5] = fraction of injected protein bound, 0.5 mg/ml IgG in PBS pH 7.3, ligand immobilized on SEPHAROSE 4 FF
[6] = mass eluted (glycine pH 2.5) / mass injected
[7] = fraction of injected undiluted host cell proteins bound
[8] = fraction of injected protein bound, 0.5 mg/ml IgG in PBS pH 7.3
[9] = L55-73: estimated values based on the knowledge obtained from L01-L54

SMILES	Selectivity (Bevacizumab [1])	Bevacizumab Bound (Bevacizumab [2]; [5]) [%]	Bevacizumab Yield (Bevacizumab [2]; [6]) [%]	HCP Bound (host cell proteins (HCP); [7]) [%]	h-poly-IgG Bound [3, 8] [%]	Cetuximab Bound (Cetuximab; [8]) [%]	Tocilizumab Bound (Tocilizumab; [8]) [%]	Palivizumab Bound (Palivizumab; [8]) [%]	pKd (Bevacizumab [4])	Bevacizumab Bound (Bevacizumab [2]; [9]) [%]	Bevacizumab Yield (Bevacizumab [2]; [9]) [%]	HCP Bound (host cell proteins (HCP); [9]) [%]	h-poly-IgG Bound [3, 9] [%]	Cetuximab Bound (Cetuximab; [9]) [%]	Tocilizumab Bound (Tocilizumab; [9]) [%]	Palivizumab Bound (Palivizumab; [9]) [%]
NCCCNc1ccc(C(=O)Nc2nnc(-c3ccco3)s2)cc1[N+](=O)[O-] [Ligand L18, 4-[(3-Amino-1-propyl)amino]-3-nitrobenzoic acid N-[5-(2-furyl)-1,3,4-thiadiazol-2-yl]amide]	3.4	100	102	29	100	100	100	100								
NCCOCCOc1ccc(C(=O)Nc2nnc(-c3ccco3)s2)cc1 [Ligand L37, 4-(5-Amino-3-oxa-1-pentyloxy)benzoic acid N-[5-(2-furyl)-1,3,4-thiadiazol-2-yl] amide]	4.0	100	87	25	100	100	100	100								
CCSc1nnc(NC(=O)c2ccc3c(c2)ncn3CCCN)s1 [Ligand L12, 1-(3-Amino-1-propyl)benzimidazole-5-carboxylic acid N-(2-ethylthio-1,3,4-thiadiazol-5-yl) amide]	2.5	100	104	40	100	100	100	100								
Cc1csc(NC(=O)c2ccc3c(c2)ncn3CCCN)n1 [Ligand L15, 1-(3-Amino-1-propyl)benzimidazole-5-carboxylic acid N-(4-methylthiazol-2-yl) amide]	2.6	100	91	39	100	100	100	100								
NCCCn1cnc2cc(C(=O)Nc3nc4c(s3)CCC4)ccc21 [Ligand L32, 1-(3-Amino-1-propyl)benzimidazole-5-carboxylic acid N-(5,6-dihydro-(4H)-cyclopentathiazol-2-yl) amide]	2.3	100	103	44	91	100	100	91								
NCCCn1cnc2cc(C(=O)Nc3nc4ccccc4s3)ccc21 [Ligand L10, 1-(3-Amino-1-propyl)benzimidazole-5-carboxylic acid N-(benzothiazol-2-yl) amide]	2.2	100	100	45	100	100	100	100								
Cn1nc(C(=O)Nc2ccc3c(c2)C(=O)N(CCCN)CCO3)c2ccccc21 [Ligand L03, 4-(3-Amino-1-propyl)-7-[(1-methylindazol-3-yl)carboxamido]-2,3,4,5-tetrahydrobenzo[f][1,4]oxazepin-5-one]	2.2	100	92	45		99	99	78								
Cn1nc(NC(=O)c2ccc3c(c2)nnn3CCCN)c2ccccc21 [Ligand L06, 1-(3-Amino-1-propyl)benzotriazole-5-carboxylic acid N-(1-methylindazol-3-yl) amide]	3.2	100	84	31				74								
NCCCn1cc(-c2ccc(C(=O)Nc3nnc(-c4ccco4)s3)cc2)nn1 [Ligand L48]		100							3.15							
Cc1nc2cc(C(=O)Nc3nc(-c4ccco4)cs3)ccc2n1CCCN [Ligand L62, 1-(3-Amino-1-propyl)-2-methylbenzimidazole-5-carboxylic acid N-[4-(2-furyl)thiazol-2-yl] amide]										100	>80	<40	>80	100	>95	>80
Cc1nc2cc(C(=O)Nc3nnc(-c4ccno4)s3)ccc2n1CCCN [Ligand L71, 1-(3-Amino-1-propyl)-2-methylbenzimidazole-5-carboxylic acid N-[5-(5-isoxazolyl)-1,3,4-thiadiazol-2-yl] amide]										100	>80	<20	>80	>95	>90	>60
CCc1nc2cc(C(=O)Nc3nnc(-c4ccoc4)s3)ccc2n1CCCN [Ligand L66, 1-(3-Amino-1-propyl)-2-ethylbenzimidazole-5-carboxylic acid N-[5-(3-furyl)-1,3,4-thiadiazol-2-yl] amide]										100	>80	<30	>80	100	>95	>80
NCCCn1cnc2cc(C(=O)Nc3nc(-c4ccco4)ns3)ccc21 [Ligand L55, 1-(3-Amino-1-propyl)benzimidazole-5-carboxylic acid N-[3-(2-furyl)-1,2,4-thiadiazol-5-yl] amide]										100	>80	<40	>80	100	>95	>80
